Test results from patent US6545026B1, “Substituted benzylthiazolidine-2,4-dione derivatives” (Kyorin Pharmaceutical Co., Ltd., priority 1999, dated 2003).
Like-named read-outs stand apart in the source and are kept apart here.

How the values were obtained:
[1] = biological target: T1, fused protein of DNA-binding domain of yeast transcription factor with ligand-binding domain of human type PPAR γ (Homo sapiens, UniProt P37231); experiment: Test of transactivation on peroxisome proliferator-activated receptor γ (CHO cells, reporter assay)
T1 sequence (P37231 238-503 limits assumed): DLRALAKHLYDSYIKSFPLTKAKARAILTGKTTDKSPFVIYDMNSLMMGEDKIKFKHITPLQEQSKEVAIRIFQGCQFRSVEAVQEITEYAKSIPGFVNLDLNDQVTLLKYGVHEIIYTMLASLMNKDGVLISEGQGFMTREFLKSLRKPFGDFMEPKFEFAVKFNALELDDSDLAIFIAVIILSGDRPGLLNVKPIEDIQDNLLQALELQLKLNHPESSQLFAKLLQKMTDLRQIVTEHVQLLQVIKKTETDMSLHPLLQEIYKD
Procedure: (§1) Test of transactivation on peroxisome proliferator-activated receptors α and γ
(§2) After 24 hours, CAT activity and γ-galactosidase activity were measured.

[2] = biological target: T2, fused protein of DNA-binding domain of yeast transcription factor with ligand-binding domain of human type PPAR α (Homo sapiens, UniProt Q07869); experiment: Test of transactivation on peroxisome proliferator-activated receptor α (CHO cells, reporter assay)
T2 sequence (Q07869 239-466 limits assumed): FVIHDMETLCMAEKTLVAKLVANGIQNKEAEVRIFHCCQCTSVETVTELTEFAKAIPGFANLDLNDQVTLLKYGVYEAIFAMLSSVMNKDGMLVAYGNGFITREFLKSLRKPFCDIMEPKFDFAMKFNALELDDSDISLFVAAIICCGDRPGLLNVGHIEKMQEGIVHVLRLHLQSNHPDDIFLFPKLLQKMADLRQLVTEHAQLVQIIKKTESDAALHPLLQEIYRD
Procedure: as §1, §2

Structure (SMILES) | EC50 [1] | EC50 [2] | EC50 ([2]; read-out: Transactivation PPARα EC50, CHO cells, cotransfected receptor and reporter plasmid, 24 hours, CAT activity)
COc1ccc(CC2SC(=O)NC2=O)cc1C(=O)NCC1CCCCC1 (stereo not drawn) [Example 4, N-(Cyclohexylmethyl)-5-[(2,4-dioxothiazolidin-5-yl)methyl]-2-methoxybenzamide] | 230 nM | 300 nM | 
COc1ccc(CC2SC(=O)NC2=O)cc1C(=O)NCc1ccncc1 (stereo not drawn) [Example 3, N-[(4-Pyridyl)methyl]-5-[(2,4-dioxothiazolidin-5-yl)methyl]-2-methoxybenzamide] | 140 nM | 235 nM | 
CCCCC/C=C\C/C=C\C=C\[C@@H](O)C/C=C\CCCC(=O)O [(8S)-HETE, reference compound] |  |  | 1300 nM

The remaining lines, values ahead:

EC50 [1] | EC50 [2] | EC50 ([2]; read-out: Transactivation PPARα EC50, CHO cells, cotransfected receptor and reporter plasmid, 24 hours, CAT activity) | Structure (SMILES)
960 nM | 420 nM |  | COc1ccc(CC2SC(=O)NC2=O)cc1C(=O)NCc1cccnc1 (stereo not drawn) [Example 2, N-[(3-Pyridyl)methyl]-5-[(2,4-dioxothiazolidin-5-yl)methyl]-2-methoxybenzamide]
300 nM | 353 nM |  | COc1ccc(CC2SC(=O)NC2=O)cc1C(=O)NCc1ccccn1 (stereo not drawn) [Example 1, N-[(2-Pyridyl)methyl]-5-[(2,4-dioxothiazolidin-5-yl)methyl]-2-methoxybenzamide]
